Source: patent publication US6368803B1, “Detection of nucleic acids by target-catalyzed formation” (Dade Behring Inc., priority 1994, dated 2002)
“And” between values parts separate entries of the source, which are not always exact repeats. Identical values can stand only once. {32P} = terminal 32P phosphate radiolabel

What was measured:
[1] = system: single stranded target DNA (M13mp19); test: Target-catalyzed isothermal 5'-nuclease cleavage of 5'-32P-labeled probe; fold amplification by gel electrophoresis and liquid scintillation; format: biochemical
Description: Probe 2, the unlabeled probe, was designed to anneal to the target DNA 3' to, and contiguous with, the site at which the labeled probe annealed to the target DNA. […] However, good results were obtained in the absence of DATP. The reaction mixture was incubated at 72° C. and accumulation of product, a mononucleotide, namely, 5'^32P-C-OH, was determined by visualization using autoradiography following polyacrylamide gel electrophoresis. The fold of amplification was determined by liquid scintillation spectrometry of excised reaction products. A 10^5 fold amplification was observed. […] The product of this reaction was a dinucleotide, namely, 5'^32P-TC-OH (SEQ ID NO:4), that represented a 10^5-fold amplification. The above reaction protocol was repeated with different temperatures and different concentrations of reagents. All of the reactions, including those mentioned above, were carried out for a period of 3 hours. The following table summarizes the reagents and reaction parameters and the results obtained during the optimization procedure. The reaction protocol described in Example 1 was repeated using the following probes in place of Probe 1 or Probe 3: […]

[2] = system: Probe 5 hybridized to target DNA (M13mp19); test: Cleavage of Probe 5 on target DNA using six different DNA polymerases with 5'-nuclease activity; format: biochemical; conditions: 2×10^9 target molecules; Probe 5 1 micromolar; three hours; 72 °C; 20-nucleotide fragment
Description: Probe 2, the unlabeled probe, was designed to anneal to the target DNA 3' to, and contiguous with, the site at which the labeled probe annealed to the target DNA. […] However, good results were obtained in the absence of DATP. The reaction protocol described in Example 1 was repeated using 2×10^9 target molecules and Probe 5 (see Example 2) at a concentration of 1 micromolar in place of Probe 1. The reactions were conducted for three hours at a temperature of 72° C. using one of six different DNA polymerases, namely, AmpliTaq DNA polymerase, […] polymerase (Epicentre), Tfl(TM) DNA polymerase (Epicentre), Ultra Therm(TM) DNA polymerase (Bio/Can Scientific), […] polymerase (Amresco) and Panozyme(TM) DNA polymerase. The product of the reaction was a 20-nucleotide fragment (see Example 2). The following is a summary of the results obtained.

[3] = probe 1 μM, target number 10^9, Taq 7.5 units, 72 °C, increase MgCl2 (7.5 mM), 3 hours
[4] = probe 10 uM, 2×10^8 target molecules, Probe 2 1 uM, 7.5 units AmpliTaq, 72 °C, 7.5 mM MgCl2, 100 uM dATP, 3 hours
[5] = probe 10 μM, target number 10^8, Taq 7.5 units, 74 °C, increase MgCl2 (7.5 mM), 3 hours
[6] = probe 10 μM, target number 10^9, Taq 7.5 units, 74 °C, increase MgCl2 (7.5 mM), 3 hours

“5′ CGT-GGG-AAC-AAA-CGG-CGG-AT3′ (CGTGGGAACAAACGGCGGAT; DNA, 5' {32P}, backbone and methylation of C not given here) [Probe 1, 20-base oligonucleotide fully complementary to the target DNA with label on the 5′-nucleotide]” was tested. Which Fold amplification ([1]; probe 1 μM, target number 10^8, Taq 7.5 units, 72 °C, add dATP (100 μM), 3 hours) did it give?
Its Fold amplification is 1.0 × 10^4 fold.

What about the Fold amplification ([1]; probe 1 μM, target number 10^9, Taq 2.5 units, 72 °C, buffer as described, 1.5 mM MgCl2, 3 hours) of the same compound?
The Fold amplification was 1.8 × 10^3 fold.

What about the Fold amplification ([1]; probe 1 μM, target number 10^9, Taq 7.5 units, 72 °C, add dATP (100 μM), 3 hours) of the same compound?
The Fold amplification was 1.4 × 10^3 fold.

What about the Fold amplification ([1]; probe 1 μM, target number 10^9, Taq 7.5 units, 72 °C, buffer as described, 1.5 mM MgCl2, 3 hours) of the same compound?
Its Fold amplification is 2.0 × 10^3 fold.

What about the Fold amplification [1, 3] of the same compound?
The Fold amplification was 9.7 × 10^3 fold and 9.3 × 10^3 fold.

What about the Fold amplification ([1]; probe 1 μM, target number 10^10, Taq 2.5 units, 72 °C, buffer as described, 1.5 mM MgCl2, 3 hours) of the same compound?
Its Fold amplification is 8.8 × 10^2 fold.

And the Fold amplification [1, 4]?
The Fold amplification was 10^5 fold.

What about the Fold amplification ([1]; probe 10 μM, target number 10^8, Taq 7.5 units, 72 °C, add dATP (100 μM), 3 hours) of the same compound?
Its Fold amplification is 3.6 × 10^4 fold.

What about the Fold amplification [1, 5] of the same compound?
Its Fold amplification is 1.1 × 10^5 fold.

What about the Fold amplification ([1]; probe 10 μM, target number 10^9, Taq 7.5 units, 72 °C, add dATP (100 μM), 3 hours) of the same compound?
Its Fold amplification is 1.4 × 10^4 fold.

What about the Fold amplification [1, 6] of the same compound?
The Fold amplification was 3.7 × 10^4 fold.

With “5′GAT-TAG-GAT-TAG-GAT-TAG-TCG-TGG-GAA-CAA-ACG-GCG-GAT3′ (GATTAGGATTAGGATTAGTCGTGGGAACAAACGGCGGAT; DNA, 5' {32P}, backbone and methylation of C not given here) [Probe 5, 39 nucleotides with 19 nucleotides at its 5′-end not complementary to the target DNA]” as the compound, how does the Fold amplification ([1]; Example 1 protocol, probe concentration not given, product intact 20 nucleotide fragment) read?
The Fold amplification was 1.5×10^4 fold.

For “5′TCG-TGG-GAA-CAA-ACG-GCG-GAT3′ (TCGTGGGAACAAACGGCGGAT; DNA, 5' {32P}, backbone and methylation of C not given here) [Probe 3, 21 nucleotides withone base at the 5′-end not complementary to the target DNA]”, which Fold amplification ([1]; probe 1 μM, target number 10^8, Taq 7.5 units, 72 °C, increase MgCl2 (7.5 mM), 3 hours) is on record?
The Fold amplification was 2.6 × 10^4 fold.

And the Fold amplification [1, 3]?
Its Fold amplification is 9.9 × 10^3 fold.

What about the Fold amplification [1, 4] of the same compound?
Its Fold amplification is 10^5 fold.

And the Fold amplification [1, 5]?
Its Fold amplification is 1.0 × 10^5 fold.

And the Fold amplification [1, 6]?
The Fold amplification was 4.6 × 10^4 fold.

For “5′TTA-TTT-CGT-GGG-AAC-AAA-CGG-CGG-AT3′ [Probe 4]”, which Fold amplification ([1]; Example 1 protocol, probe 1 micromolar, product intact seven nucleotide fragment) is on record?
The Fold amplification was 1.5×10^4 fold.

For `Nc1ncnc2c1ncn2[C@H]1C[C@H](O)[C@@H](COP(=O)(O)OP(=O)(O)OP(=O)(O)O)O1` [dATP, reference compound], which “effect on rate of cleavage by the polymerase” value ([1]; 100 uM in buffer, AmpliTaq DNA polymerase) is on record?
Its value is “enhance the rate of cleavage”.

Which “Fragment (picomoles)” value [2] does the source give for “AmpliTaq: Taq DNA polymerase from Perkin-Elmer Corporation with 5′-nuclease activity” here?
Its value is 32 picomoles.
